Laboratory results reported in patent US20260364072A1, “METHODS FOR PROMOTING EXPANSION OF HUMAN CD34+ CELLS IN VIVO AND FOR PROMOTING NEURAL REGENERATION” (THE REGENTS OF THE UNIVERSITY OF CALIFORNIA, priority 2023, published 2026).

Columns and labels:
Type in all cases: cell-based, human
ADAR1 = ADAR1 expression by qRT-PCR in TF1a cells; conditions: TF1a AML cell line; 0.1 μM, 4 hours
Source text: (§1) For lentivirus-mediated knockdown of human ADAR1 in ADAR1 activation and RNA editing biomarker studies of the nanoluc-GFP reporter and endogenous transcripts, human leukemia cells were stably transduced with the lentiviral shRNA vectors targeting ADAR1 (shADAR1) or scrambled control (shCtrl) to ablate endogenous ADAR1 expression. The shRNA plasmids targeting ADAR1 (shADAR1) as well as the scrambled control (shCtrl) were purchased from VectorBuilder (Chicago, IL) (shCtrl: […] (SEQ ID NO:3) and shADAR1: […]) (SEQ ID NO:4). […] Viral titers were assessed by qRT-PCR and transduction efficiency was tested in 293T cells. […]
(§2) For quantitative analysis of splice isoform expression, RNA editing rates, and whole gene expression by qRT-PCR, cells or tissue fragments were harvested in RNA lysis buffer and total RNA was extracted using RNeasy mini or micro extraction kits (QIAGEN, Germantown, MD) following the manufacturer's protocol including a DNase incubation step to digest any trace genomic DNA present. Levels of ADAR1 variants and LSC-specific transcripts were quantified by qRT-PCR as previously described.^14 RNA-editing site-specific qRT-PCR (RESSqPCR) was performed for variants in AZIN1 transcripts.^53 Additional species-specific primers were also designed to quantify intron retention rates in cells treated with Rebecsinib as a biomarker of response to RNA splicing modulation. […]

[1] = test system: splicing reporter in KG-1a AML cells; test: Lentiviral dual fluorescence (RFP/GFP) splicing reporter in KG-1a cells; conditions: 24 hr
Source text: (FIG. 29A) Quantification of cell viability (left panel) and splicing modulation (RFP/GFP ratios, right panel) by flow cytometry analyses of the human AML cell line (KG-1a) stably transduced with a lentiviral dual-fluorescence splicing reporter vector and treated with increasing concentrations of Rebecsinib.
For generation of stably transduced splicing reporter cell lines, a previously described splicing reporter construct^31 was cloned into a lentiviral vector backbone.^52 KG-1a cells were transduced with the dual-fluorescent lentiviral splicing reporter vector, treated with various concentrations of Rebecsinib (3-fold serial dilutions from 3 μM to 4 nM) for 24 hr, washed followed by DAPI staining, and analyzed by flow cytometry for cell viability and RFP/GFP fluorescence intensity. Results were from duplicate wells of each condition. Viability of cells treated with DMSO (0.5% final concentration) was set as 100%. Nonlinear regression curve fit analysis was carried out using Prism software (GraphPad) to determine ECso values for viability and mean fluorescence intensity (MFI) of RFP and GFP.

AZIN1 transcript = AZIN1 transcript editing by RESSqPCR in TF1a cells; conditions: shADAR1-transduced cells treated with Rebecsinib compared with vehicle controls
Source text: as §1, §2

CC[C@H](OC)[C@@H](C)[C@H]1O[C@@H]1[C@@H](O)[C@H](C)/C=C/C=C(\C)[C@H]1OC(=O)C[C@H](O)CC[C@@](C)(O)[C@@H](OC(C)=O)/C=C/[C@@H]1C [Rebecsinib]
ADAR1 expression as measured by qRT-PCR (ADAR1): reduced ADAR1 expression
RFP to GFP reporter expression [1]: increased RFP to GFP reporter expression in a dose-dependent manner
AZIN1 transcript editing activity (RESSqPCR) (AZIN1 transcript): low levels of AZIN1 transcript editing activity
